According to US9630977B2, “Cephalosporin derivatives and pharmaceutical compositions thereof” (Legochem Biosciences, Inc., priority 2011, dated 2017):
Converted amounts (≈) assume the structure as drawn. Like-named read-outs stand apart in the source and are kept apart here.

How the values were obtained:
Format in all cases: cell-based
[1] = tested on: P. aeruginosa (16 clinical isolates); assay: Antibacterial activity on representative drug-resistance bacteria: number of clinical isolates per MIC value; details: P. aeruginosa (N = 16)
Method: (§1) The in vitro antibacterial activity was evaluated by measuring MIC90 (ug/mL) of each of the compounds of Examples 1 to 68, which is defined as the lowest concentration of an antibiotic that will inhibit the visible growth of 90% of microorganisms after incubation as compared with a control group to which the antibiotic is not treated. MIC90 values were measured by the broth microdilution method developed by the Clinical and Laboratory Standards Institute (CLSI) (see CLSI M7-A5, Methods for Dilution Antimicrobial Susceptibility Test for Bacteria that Grow Aerobically-Fifth Edition (2000): CLSI, Villanova, Pa.).
(§2) Test compounds each (the cephalosporin derivative compounds prepared in Examples 1 to 68) were dissolved in DMSO at the concentration of 10,240 ug/mL, were diluted by two fold with DMSO, and then were diluted by twenty fold with sterilized distilled water. The final concentration in the antibacterial activity test was in the range of […] to 128 ug/mL, and the final concentration of DMSO used as an adjuvant was 2.5% (V/V).

[2] = tested on: K. pneumoniae (38 clinical isolates); assay: as above; details: K. pneumomiae (N = 38)
Method: as §1, §2

[3] = tested on: A. baumannii (6 clinical isolates); assay: as above; details: MIC >16 ug/mL; A. baumanni (N = 6)
Method: as §1, §2

P. aeruginosa 40 = assay: In vitro antibacterial activity test (broth microdilution)
In short: (§3)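 Clinical isolates were tested in two-fold dilution series (final 0.0626–128 ug/mL, 2.5% v/v DMSO) by the CLSI broth microdilution method. Values are MIC90, the lowest concentration preventing visible growth of 90% of organisms compared with untreated control.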

E. coli β4 = assay: as above; details: Escherichia coli
In short: as §3

E. cloacae β19 = assay: as above; details: Enterobacter cloacae
In short: as §3

A. baumannii 52 = assay: as above; details: Acinetobacter baumannii
In short: as §3

K. pneumoniae β14 = assay: as above; details: Klebsiella pneumoniae
In short: as §3

P. aeruginosa 43 = assay: as above; details: Pseudomonas aeruginosa
In short: as §3

K. pneumoniae β9 = assay: as above; details: Klebsiella pneumoniae
In short: as §3

[4] = tested on: A. calcoaceticus ATCC15473; assay: as above; details: Acinetobacter calcoaceticus
In short: as §3

K. pneumoniae β11 = assay: as above; details: Klebsiella pneumoniae
In short: as §3

A. baumannii 46 = assay: as above
In short: as §3

P. aeruginosa 37 = assay: as above; details: Pseudomonas aeruginosa, 37, P. aeruginosa 37
In short: as §3

P. aeruginosa 1912E = assay: as above; details: Pseudomonas aeruginosa, 1912E
In short: as §3

A. baumannii 49 = assay: as above
In short: as §3

P. aeruginosa 6065Y = assay: as above; details: Pseudomonas aeruginosa
In short: as §3

E. coli AG100 = assay: as above; details: Escherichia coli
In short: as §3

M. catarrhalis 2524 = assay: as above; details: Moraxella catarrhalis
In short: as §3

K. pneumoniae β13 = assay: as above; details: Klebsiella pneumoniae
In short: as §3

K. pneumoniae β10 = assay: as above; details: Klebsiella pneumoniae
In short: as §3

K. pneumoniae 2011E = assay: as above; details: Klebsiella pneumoniae, 2011E
In short: as §3

[5] = ATCC15473, A. calcoaceticus ATCC15473
[6] = Acinetobacter baumannii, 46, A. baumannii 46
[7] = Acinetobacter baumannii, 49, A. baumannii 49
[8] = Pseudomonas aeruginosa, 40, P. aeruginosa 40, read-out: MIC90
[9] = A. baumannii 52, read-out: MIC90
[10] = P. aeruginosa 43, read-out: MIC90
[11] = K. pneumoniae β9, read-out: MIC90
[12] = A. calcoaceticus ATCC15473, read-out: MIC90
[13] = K. pneumoniae β11, read-out: MIC90
[14] = Acinetobacter baumannii, A. baumannii 46, read-out: MIC90
[15] = Acinetobacter baumannii, A. baumannii 49, read-out: MIC90
[16] = AG100, E. coli AG100, read-out: MIC90
[17] = M. catarrhalis 2524, read-out: MIC90
[18] = K. pneumoniae β13, read-out: MIC90
[19] = K. pneumoniae β10, read-out: MIC90
[20] = K. pneumoniae 2011E, read-out: MIC90

| MIC90 (P. aeruginosa 40; [8]) [µg/mL] | MIC90 (E. coli β4; read-out: MIC90) [µg/mL] | MIC90 (E. cloacae β19; read-out: MIC90) [µg/mL] | MIC90 (A. baumannii 52; [9]) [µg/mL] | MIC90 (K. pneumoniae β14; read-out: MIC90) [µg/mL] | MIC90 (P. aeruginosa 43; [10]) [µg/mL] | MIC90 (K. pneumoniae β9; [11]) [µg/mL] | MIC90 [4, 12] [µg/mL] | MIC90 (K. pneumoniae β11; [13]) [µg/mL] | MIC90 (A. baumannii 46; [14]) [µg/mL] | MIC90 (P. aeruginosa 37; read-out: MIC90) [µg/mL] | MIC90 (P. aeruginosa 1912E; read-out: MIC90) [µg/mL] | MIC90 (A. baumannii 49; [15]) [µg/mL] | MIC90 (P. aeruginosa 6065Y; read-out: MIC90) [µg/mL] | MIC90 (E. coli AG100; [16]) [µg/mL] | MIC90 (M. catarrhalis 2524; [17]) [µg/mL] | MIC90 (K. pneumoniae β13; [18]) [µg/mL] | MIC90 (K. pneumoniae β10; [19]) [µg/mL] | MIC90 (K. pneumoniae 2011E; [20]) [µg/mL] | Compound | other results |
| --- | --- | --- | --- | --- | --- | --- | --- | --- | --- | --- | --- | --- | --- | --- | --- | --- | --- | --- | --- | --- |
|  |  |  |  |  |  |  |  |  |  |  |  |  |  |  |  |  |  |  | Cn1c(N)c(NC(=O)NCCN)c[n+]1CC1=C(C(=O)O)N2C(=O)[C@@H](NC(=O)/C(=N\OC(C)(C)C(=O)[O-])c3nsc(N)n3)[C@H]2SC1 [CXA-101, reference compound] | number of clinical isolates that showed the respective MIC value ([1]; MIC 2 ug/mL): 4; number of clinical isolates that showed the respective MIC value ([1]; MIC 4 ug/mL): 4; number of clinical isolates that showed the respective MIC value ([1]; MIC 8 ug/mL): 1; number of clinical isolates that showed the respective MIC value ([1]; MIC >16 ug/mL): 7; number of clinical isolates that showed the respective MIC value ([2]; MIC 1 ug/mL): 1; number of clinical isolates that showed the respective MIC value ([2]; MIC 2 ug/mL): 1; number of clinical isolates that showed the respective MIC value ([2]; MIC 16 ug/mL): 1; number of clinical isolates that showed the respective MIC value ([2]; MIC >16 ug/mL): 35; number of clinical isolates that showed the respective MIC value [3]: 6 |
|  |  |  |  |  |  |  |  |  |  |  |  |  |  |  |  |  |  |  | CC(C)(O/N=C(\C(=O)N[C@@H]1C(=O)N2C(C(=O)[O-])=C(C[n+]3cnc(NCCN)c(NCCNC(=O)c4cc(=O)c(O)cn4O)c3)CSC12)c1csc(N)n1)C(=O)O (stereo partly drawn) [Compound 5] | MIC90 (P. aeruginosa 40; Pseudomonas aeruginosa, 40): 1 µg/mL (≈ 1.22 µM); MIC90 (E. coli β4): 0.5 µg/mL (≈ 0.612 µM); MIC90 (E. cloacae β19): 0.5 µg/mL (≈ 0.612 µM); MIC90 (A. baumannii 52; 52): > 128 µg/mL; MIC90 (K. pneumoniae β14): 8 µg/mL (≈ 9.79 µM); MIC90 (P. aeruginosa 43; 43): 0.25 µg/mL (≈ 0.306 µM); MIC90 (K. pneumoniae β9): < 0.0625 µg/mL; MIC90 [4, 5]: 2 µg/mL (≈ 2.45 µM); MIC90 (K. pneumoniae β11): 2 µg/mL (≈ 2.45 µM); MIC90 (A. baumannii 46; [6]): 16 µg/mL (≈ 19.6 µM); MIC90 (P. aeruginosa 37): 1 µg/mL (≈ 1.22 µM); MIC90 (P. aeruginosa 1912E): 1 µg/mL (≈ 1.22 µM); MIC90 (A. baumannii 49; [7]): > 128 µg/mL; MIC90 (P. aeruginosa 6065Y; 6065Y): 4 µg/mL (≈ 4.9 µM); MIC90 (E. coli AG100; AG100): < 0.0625 µg/mL; MIC90 (M. catarrhalis 2524; 2524): 0.25 µg/mL (≈ 0.306 µM); MIC90 (K. pneumoniae β13): 0.5 µg/mL (≈ 0.612 µM); MIC90 (K. pneumoniae β10): 1 µg/mL (≈ 1.22 µM); MIC90 (K. pneumoniae 2011E): 2 µg/mL (≈ 2.45 µM) |
| 2 (≈ 2.61 µM) | 32 (≈ 41.8 µM) | 32 (≈ 41.8 µM) | 2 (≈ 2.61 µM) | 128 (≈ 167 µM) | 0.5 (≈ 0.653 µM) | 8 (≈ 10.5 µM) | 0.5 (≈ 0.653 µM) | 64 (≈ 83.6 µM) | 128 (≈ 167 µM) | 1 (≈ 1.31 µM) | 2 (≈ 2.61 µM) | 16 (≈ 20.9 µM) | 2 (≈ 2.61 µM) | 2 (≈ 2.61 µM) | 0.5 (≈ 0.653 µM) | 2 (≈ 2.61 µM) | 1 (≈ 1.31 µM) | 16 (≈ 20.9 µM) | CC(C)(O/N=C(\C(=O)N[C@@H]1C(=O)N2C(C(=O)[O-])=C(C[n+]3cnc(N)c(NC(=O)c4cc(=O)c(O)cn4O)c3)CSC12)c1nc(N)sc1Cl)C(=O)O (stereo partly drawn) [Compound 22] |  |
|  |  |  |  |  |  |  |  |  |  |  |  |  |  |  |  |  |  |  | CC(C)(O/N=C(\C(=O)N[C@@H]1C(=O)N2C(C(=O)[O-])=C(C[n+]3cnc(NCCCCN)c(NCCCCN)c3)CSC12)c1csc(N)n1)C(=O)O (stereo partly drawn) [Compound 41] | MIC90 (P. aeruginosa 40; Pseudomonas aeruginosa, 40): 4 µg/mL (≈ 5.56 µM); MIC90 (E. coli β4): 1 µg/mL (≈ 1.39 µM); MIC90 (E. cloacae β19): 4 µg/mL (≈ 5.56 µM); MIC90 (A. baumannii 52; 52): 32 µg/mL (≈ 44.5 µM); MIC90 (K. pneumoniae β14): 2 µg/mL (≈ 2.78 µM); MIC90 (P. aeruginosa 43; 43): 128 µg/mL (≈ 178 µM); MIC90 (K. pneumoniae β9): 2 µg/mL (≈ 2.78 µM); MIC90 [4, 5]: 1 µg/mL (≈ 1.39 µM); MIC90 (K. pneumoniae β11): 8 µg/mL (≈ 11.1 µM); MIC90 (A. baumannii 46; [6]): 32 µg/mL (≈ 44.5 µM); MIC90 (P. aeruginosa 37): 8 µg/mL (≈ 11.1 µM); MIC90 (P. aeruginosa 1912E): 4 µg/mL (≈ 5.56 µM); MIC90 (A. baumannii 49; [7]): 32 µg/mL (≈ 44.5 µM); MIC90 (P. aeruginosa 6065Y; 6065Y): 16 µg/mL (≈ 22.2 µM); MIC90 (E. coli AG100; AG100): 1 µg/mL (≈ 1.39 µM); MIC90 (M. catarrhalis 2524; 2524): 0.125 µg/mL (≈ 0.174 µM); MIC90 (K. pneumoniae β13): 2 µg/mL (≈ 2.78 µM); MIC90 (K. pneumoniae β10): 2 µg/mL (≈ 2.78 µM); MIC90 (K. pneumoniae 2011E): 4 µg/mL (≈ 5.56 µM) |
| < 0.0625 | < 0.0625 | 1 (≈ 1.25 µM) | 8 (≈ 9.99 µM) | 16 (≈ 20 µM) | 0.25 (≈ 0.312 µM) | < 0.0625 | 0.25 (≈ 0.312 µM) | > 128 | 0.5 (≈ 0.624 µM) | < 0.0625 | 0.25 (≈ 0.312 µM) | 128 (≈ 160 µM) | 0.5 (≈ 0.624 µM) | < 0.0625 | < 0.0625 | < 0.0625 | < 0.0625 | 0.25 (≈ 0.312 µM) | CC(C)(O/N=C(\C(=O)N[C@@H]1C(=O)N2C(C(=O)[O-])=C(/C=C/C[n+]3cnc(N)c(NCCNC(=O)c4cc(=O)c(O)cn4O)c3)CSC12)c1nsc(N)n1)C(=O)O (stereo partly drawn) [Compound 25] |  |
| 0.5 (≈ 0.604 µM) | < 0.0625 | 2 (≈ 2.42 µM) | > 128 | 4 (≈ 4.83 µM) | 1 (≈ 1.21 µM) | < 0.0625 | 1 (≈ 1.21 µM) | 64 (≈ 77.3 µM) | 4 (≈ 4.83 µM) | 0.25 (≈ 0.302 µM) | 1 (≈ 1.21 µM) | > 128 | 2 (≈ 2.42 µM) | < 0.0625 | 0.25 (≈ 0.302 µM) | < 0.0625 | < 0.0625 | 1 (≈ 1.21 µM) | CC(C)(O/N=C(\C(=O)N[C@@H]1C(=O)N2C(C(=O)[O-])=C(/C=C/C[n+]3cnc(N)c(NCCCCNC(=O)c4cc(=O)c(O)cn4O)c3)CSC12)c1csc(N)n1)C(=O)O (stereo partly drawn) [Compound 23] |  |
| 2 (≈ 2.39 µM) | 16 (≈ 19.1 µM) | 64 (≈ 76.5 µM) | 2 (≈ 2.39 µM) | 128 (≈ 153 µM) | 0.25 (≈ 0.299 µM) | 8 (≈ 9.57 µM) | 1 (≈ 1.2 µM) | 64 (≈ 76.5 µM) | 128 (≈ 153 µM) | 0.25 (≈ 0.299 µM) | 1 (≈ 1.2 µM) | 8 (≈ 9.57 µM) | 2 (≈ 2.39 µM) | 2 (≈ 2.39 µM) | 0.5 (≈ 0.598 µM) | 4 (≈ 4.78 µM) | 4 (≈ 4.78 µM) | 16 (≈ 19.1 µM) | CC(C)(O/N=C(\C(=O)N[C@@H]1C(=O)N2C(C(=O)[O-])=C(C[n+]3cnc(N)c(NC(=O)CCNC(=O)c4cc(=O)c(O)cn4O)c3)CSC12)c1nc(N)sc1Cl)C(=O)O (stereo partly drawn) [Compound 18] |  |
